Laboratory results as given in US20250114335A1, “METHODS AND COMPOSITIONS FOR THE TREATMENT OF EPILEPSY” (ARIZONA BOARD OF REGENTS ON BEHALF OF THE UNIVERSITY OF …, priority 2022, published 2025).
Values joined by “and” are separate entries in the source; they are usually repeats but may differ in a detail not shown here. Equal values may be shown once.

Assays:
[1] = system: B6-D/+ (Scn8a-N1768D) adult mice; details: CBD-treated B6-D/+ males, comparison; cited from earlier work
[2] = system: B6-D/D (Scn8a-N1768D) juvenile mice; details: CBD-treated B6-D/D males, comparison; cited from earlier work
[3] = system: B6-D/D (Scn8a-N1768D) juvenile mice; experiment: Survival and seizure frequency, B6-D/D juvenile mice; assay type: in vivo, mouse
Excerpt: Mouse strains: The C57BL/6J-N1768D congenic mouse (B6-D/+) was used for phenotyping, RNAseq, and BBB studies. In addition, a hybrid strain that was produced by backcross breeding to transfer the Scn8a-N1768D allele from the B6 to the C3H/HeJ strain background was used to further assess the effect of CND on survival and seizure frequency. After constructing an F1 by crossing male B6-D/+ heterozygotes to female C3H/HeJ, five rounds of backcrossing (N6) produced a […] and 98.5% C3H/HeJ-N1768D line (C3H-D/+). Sister-brother mating maintained the 98.5% C3H background. […] C3H-D/D mice have a delayed seizure onset (˜40-45 days) and an extended survival (65-70 days) with intermittent bouts of TCs (FIG. 1A).
Phenotyping: Female and male mice on both the B6 and C3H backgrounds were housed in sex-specific groups of 3-4 per cage in a pathogen-free mouse facility with a 14 h light/10 h dark cycle (lights turned on at 5 am). A 24/7 video monitoring system was utilized to collect seizure data, with infrared illumination to monitor behavior during the dark period. Seizures were counted as individual TCs. Adult mice were followed from the age of 6 weeks, a period of time well before seizure onset, in order to identify the day of seizure onset. A seizure bout was defined as a cluster of seizures on consecutive days, and a gap as a seizure-free period of 3 days or more.
Preparation of CND suspension for injections and oral dosing: Juvenile B6-D/D and adult B6-D/+ mice were given subcutaneous (s.c.) injections with either CND (2-4 mg/kg/day; doses that fall within the FDA-approved range for CND in both adults and children) or vehicle (VEH) (Sigma-Aldrich) (FIG. 1B). Oral dosing of adults was performed by thoroughly mixing 160 μl of suspension containing 1.28 mg of CND or VEH with 5 g of pure (organic) peanut butter in a petri dish. Mice were given 1 g pellet per mouse each day. Pellets were weighed each day to record the amount consumed, and 24/7 video was used to verify that each mouse was consuming the pellet. An average of 0.79 g (±0.36 g) was consumed by an adult mouse (˜20-25 g), corresponding to 9.1±4.2 mg/kg/day. No correlations were found for the amount of CND consumed and lifetime survival or number of TCs.
Survival and seizure frequency studies: B6-D/D mice were injected with CND (n=10) or VEH (n=10) at 15 days of age (P15) and followed to monitor TCs by 24/7 video recording until death (FIG. 1B). A separate set of 10 B6-D/D mice was administered a daily s.c. injection of 25 mg/kg/day phenytoin (PHT) suspension or VEH (US Pharmacopeia, Sigma-Aldrich). Oral administration of CND or VEH was initiated at the time of seizure onset (range P75-P85) for adult B6-D/+ females (N=10) and males (N=10) (FIG. 1B). Mice were monitored for seizures by 24/7 video recording until the time of death.

SMILES	standard effect size, survival [1]	standard effect size, survival [2]	survival of juveniles (in words) ([3]; B6-D/D Juveniles)	#TCs ([3]; B6-D/D juveniles, Treated)	#TCs/day (Life) ([3]; B6-D/D juveniles, Treated)	#TCs/day (PostTC) ([3]; B6-D/D juveniles, Treated)	#gaps ([3]; B6-D/D juveniles, Treated)	Age at Onset ([3]; B6-D/D juveniles, Treated)	Days with TCs ([3]; B6-D/D juveniles, Treated)	gap days ([3]; B6-D/D juveniles, Treated)	mean gap length ([3]; B6-D/D juveniles, Treated)	Age at Death ([3]; B6-D/D juveniles, Treated, daily s.c. injection)
C=C(C)[C@@H]1CCC(C)=C[C@H]1c1c(O)cc(CCCCC)cc1O [CBD]	0.50	0.35										
O=C1NC(=O)C(c2ccccc2)(c2ccccc2)N1 [PHT, phenytoin]			minor increase in survival that did not reach statistical significance	55.9 TCs	1.9 TCs/day	10.2±7.1 TCs/day and 10.2 TCs/day	1.2	22.2	6.8 days	5.2 days	3.5	30.1 ± 5.1 days and 30.1 days
